Measured values from US9540418B2, “Polypeptide specifically binding to rare earth nanoparticles and use thereof” (University of Science and Technology of China, priority 2012, dated 2017).

Assays:
[1] = Dissociation of FITC-RE-1 from UCN over time; type: binding; settings: after 48 h, 37° C., shaking
Method: (§1) 250 μg FITC-RE-1 was thoroughly mixed with 500 μg UCN. The excess and unbound polypeptides were washed off. Then, the mixture was divided into five aliquots. The aliquots were gently shaked on a shaking table at 37° C. The amount of FITC-RE-1 dissociated in the supernatants was measured by using a fluorescence spectrophotometer at different time points (0 hr, 2 hr, 12 hr, 24 hr, and 48 hr).

[2] = Dissociation of FITC-RE-1 from UCP over time; type: binding; settings: after 48 hr, 37° C., shaking
Method: as §1
The process described above was repeated except that 50 μg FITC-RE-1 and 500 μg UCP were used. The amount of FITC-RE-1 dissociated in the supernatants was measured.

HeLa cells [3] = assay: Diffusibility / adherence on coverslip with cells facing upward or downward; type: cell-based
Method: HeLa cells were cultured on a coverslip (22 mm×22 mm), which was then placed into a 6-well plate with the cells facing upward or downward, and the coverslip was supported by a sterilized glass cube (2 mm×2 mm×2 mm). Then, 4 mL DMEM medium (Gibco) containing the rare-earth upconversion nanophosphors (UCN, UCP) with or without RE-1 coating was slowly poured into the 6-well plate, such that the cells were fully immersed in the medium, and the coverslip is just located at the middle of the height of the liquid. The cells were placed into a cell incubator at 37° C. for 2 hr, and then washed with PBS 3 times. The UCNs adhered to the surfaces of the cells were observed under a fluorescence microscope (Olympus IX71, Olympus, Japan) equipped with a 980-nm infrared laser (MDL-980 nm 1 W, Changchun New Industries Optoelectronics Tech. Co., Ltd, China).

mice liver = assay: Autophagosome formation in mice livers by transmission electron microscope; type: in vivo, Balb/c mice; settings: RE-1 with UCN, PEG with UCN, AP-1 with UCP
Method: Balb/c mice (purchased from SLAC Laboratory Animal (Shanghai, China), 6 weeks old, and weighed 20 g when used) were bred in a sterile housing, and then 300 μg (dosage: 15 mg/kg) UCN, UCN+PEG (containing 10 mg PEG), UCN+RE-1, UCP, UCP+RE-1, or UCP+AP-1 was injected through tail vein. An equal volume of normal saline was injected as a control. After 24 hr, the livers of the mice were removed and subjected to western blotting assay.
The mice livers obtained as described in Example 21 were in situ fixed with 2.5% glutaral-dimethyl arsine buffer (pH 7.4) at 4° C. for 1 hr, then fixed with 2% osmium tetroxide at room temperature for 1 hr, and then dehydrated with ethanol gradients. Then, the cell samples were embedded into epoxy resin (EPON812). The embedded cell samples were cut into ultrathin slices, which were stained with uranyl acetate and lead citrate, and observed and imaged under a transmission electron microscope (JEOL-1230, JEOL, Japan).

HeLa cells [4] = assay: Cytotoxicity of UCN or UCP with or without RE-1 (MTT, PI staining); type: cell-based; settings: 10-1000 μg/mL, 24 hr, MTT and PI staining
Method: MTT cell vitality assay is performed as follows: The cells to which samples have been added are cultured for 24 hr, and then 0.5 mg/mL MTT solution is added and cultured for 4 hr. The MTT solution in the well is discharged, and then 200 μL DMSO is added, followed by gently shaking the plate on a shaking table for 10 min. Detection is performed using microplate reader (ELX800, purchased from BIO-TEK) at a wavelength of 570 nm.
PI staining assay is performed as follows: The cells to which samples have been added are cultured for 24 hr, and then to the culture Hoechst 33342 (10 mM, purchased from Sigma, USA, Catalog #: B2261) and PI (Propidium Iodide) (10 mM, purchased from Beyotime Biotechnology, Catalog #: ST511) are added for 10 min of staining. Then, the cells are detected and photographed under a fluorescence microscope (Olympus IX71, purchased from Olympus). The number of the cells counted by this assay was 500.
HeLa cells were inoculated into a 96-well cell culturing plate at a density of about 1-2×10^4 cells/well, and cultured overnight for further use. At first, the medium was replaced with fresh DMEM medium, and then 10 μg/mL, 100 μg/mL, 250 μg/mL, 500 μg/mL, or 1000 μg/mL of UCN or UCP coated, with or without RE-1, were added, respectively. After culturing for 24 hr, MTT cell viability assay and PI staining were performed to detect the mortality of the cells.

For “ACTARSPWICG [RE-1, RE-0 with terminal amino acids A and G added]”, the “dissociation from UCN” value [1] was “less than 0.7%”, the “dissociation from UCP” value [2] was “less than 1.5%” and the “amount of nanophosphors (UCN, UCP) coated with RE-1 adhered to the cell surfaces” value (HeLa cells [3]; cell-facing-upward group, 37° C., 2 hr) was “significantly reduced”. The “diffusibility of the rare-earth upconversion nanophosphors (UCN, UCP) in solution” value (HeLa cells [3]; cells facing upward versus downward) was “reduced the diffusibility”, the “inhibition of autophagosome formation induced by nanophosphors (UCN, UCP) in liver” value (mice liver) was “significantly inhibited” and the “effect of coating with RE-1 on cytotoxicity of UCN, UCP” value (HeLa cells [4]) was “significantly reduced cytotoxicity”.
